Laboratory results taken from patent US4697036A, “Process for the preparation of optically active alpha-arylalkanoic acids and novel intermediates thereof” (Zambon S.p.A., priority 1984, dated 1987).

How the values were obtained:
Assay type in all cases: in vivo
[1] = Anti-inflammatory activity by oral administration; details: for ED50: oral, dose column in μM/kg/os, after 3 h, read-out: ED50 (L.C. 95%)
Excerpt: A further unexpected property of the compounds of formula (C) is that they are in themselves pharmacologically active compounds. […] The following tables give the data relative to the anti-inflammatory and antipyretic activity of the compounds (D) in which: |Anti-inflammatory activity of the derivatives (a) and |(b) with respect to Naproxen and 5-bromo-Naproxen (c) |by oral administration

[2] = Antipyretic activity by peritoneal administration in rats (change in body temperature); details: peritoneal administration (title)
[3] = Antipyretic activity by oral administration in rats (change in body temperature)
Excerpt: Antipyretic activity of compound (a) and (b) with respect to
Naproxen and 5-bromo-Naproxen (c)
by oral administration in rats

SMILES | Inhibition (after 3 h) ([1]; 10 μM/kg/os) | Inhibition (after 3 h) ([1]; 30 μM/kg/os) | Inhibition (after 3 h) ([1]; 100 μM/kg/os) | ED50 [1] | Change in body temperature after 30 min ([2]; 10 μM/kg) | Change in body temperature after 1 hour ([2]; 10 μM/kg) | Change in body temperature after 4 hours ([2]; 10 μM/kg) | Change in body temperature after 30 min ([2]; 30 μM/kg) | Change in body temperature after 1 hour ([2]; 30 μM/kg) | Change in body temperature after 4 hours ([2]; 30 μM/kg) | Change in body temperature after 1 hour ([3]; 10 μM/kg/oral) | Change in body temperature after 2 hours ([3]; 10 μM/kg/oral) | Change in body temperature after 1 hour ([3]; 30 μM/kg/oral) | Change in body temperature after 2 hours ([3]; 30 μM/kg/oral) | Change in body temperature after 1 hour ([3]; 100 μM/kg/oral) | Change in body temperature after 2 hours ([3]; 100 μM/kg/oral) | Change in body temperature after 1 hour ([3]; 300 μM/kg/oral) | Change in body temperature after 2 hours ([3]; 300 μM/kg/oral) | other results
COC(=O)C(O)C(OC(=O)C(C)c1ccc2cc(OC)ccc2c1)C(=O)OC (stereo not shown) [(a)] | 0% | 0% | 16% | 175 µmol/kg | -0.26 °C | -0.52 °C | -0.19 °C | -0.61 °C | -1.02 °C | -0.56 °C | -0.02 °C | +0.02 °C | +0.07 °C | -0.61 °C | +0.01 °C | -0.76 °C | +0.03 °C | -0.81 °C | 
COC(=O)C(O)C(OC(=O)C(C)c1ccc2c(Br)c(OC)ccc2c1)C(=O)OC (stereo not shown) [(b)] | 3% | 14% | 20% | 160 µmol/kg | -0.24 °C | -0.52 °C | -0.26 °C | -0.77 °C | -0.87 °C | -0.44 °C | -0.17 °C | -0.19 °C | -0.49 °C | -0.68 °C | -0.46 °C | -0.68 °C |  |  | 
COc1ccc2cc([C@H](C)C(=O)O)ccc2c1Br [(c), S(+)-2-(5-bromo-6-methoxy-2-naphthyl)-propionic acid, reference compound] | 6% | 34% | 34% | 196 µmol/kg |  |  |  | -0.55 °C | -1.01 °C | +0.06 °C |  |  | -0.17 °C | -0.66 °C | -1.33 °C | -1.67 °C | -1.42 °C | -1.84 °C | Inhibition (after 3 h) ([1]; 300 μM/kg/os): 56%; Change in body temperature after 30 min ([2]; 100 μM/kg): -0.78 °C; Change in body temperature after 1 hour ([2]; 100 μM/kg): -1.45 °C; Change in body temperature after 4 hours ([2]; 100 μM/kg): -0.99 °C
COc1ccc2cc([C@H](C)C(=O)O)ccc2c1 [Naproxen, S(+)2-(6-methoxy-2-naphtyl)-propionic acid, reference compound] | 38% | 45% | 66% | 31 µmol/kg | -1.00 °C | -1.10 °C | -0.86 °C |  |  |  | -1.22 °C | -1.48 °C | -1.86 °C | -1.89 °C |  |  |  |  | Change in body temperature after 1 hour ([3]; 3 μM/kg/oral): -0.38 °C; Change in body temperature after 2 hours ([3]; 3 μM/kg/oral): -0.52 °C
